# Measurements as given in US11020481B2 (priority 2008, dated 2021).
# Legend:
# [1] = test system: IL-6; assay: IL-6 production in TNFα-induced NL20 cells (ELISA); format: cell-based, human
# Method: (§1) Am J Physiol Lung Cell Mol Physiol 2007; 292:[…]-352; and Donnarumma G, et al. Anti-inflammatory effects of moxifloxacin and human beta-defensin 2 association in human lung epithelial cell line (A549) stimulated with lipopolysaccharide. Peptides 2007; 28:2286-2292, incorporated by reference in their entireties). […] The effect of antibiotics on cytokine levels was assessed by ELISA assay. […] The day after seeding, cells received normal growth medium without serum for an additional 24 h. […] IL-6 and IL-8 production in NL20 monolayers was induced by treatment with 10 ng/ml of TNFα. […] After 48 h, cell medium was collected, clarified and the amount of IL-6 and IL-8 released into the medium was quantified using QuantiGlo chemiluminescent ELISA kits (R&D Systems, Minneapolis, Minn.). To test the effect of antibiotics on IL-6 and IL-8 secretion, antibiotics were added to culture media along with LPS or TNF-α and processed as described above.
# [2] = test system: IL-8, IL-6, ERK1/2, MK, and NFKB; conditions: human lung epithelia cells; antibiotic concentrations less than 50 μg/ml; cited from earlier work
# [3] = test system: IL-8; assay: IL-8 production in TNFα-induced NL20 cells (ELISA); format: cell-based, human; conditions: for levels of IL-8 decreased: p<0.005
# Method: as §1
# [4] = test system: IL-6; assay: IL-6 production in LPS-induced HBE135 cells (ELISA); format: cell-based, human; conditions: for decrease in IL-6 levels: Example 5, 5 μg/ml LPS
# Method: as §1
# [5] = test system: IL-8; assay: IL-8 production in LPS-induced HBE135 cells (ELISA); format: cell-based, human
# Method: as §1
# [6] = test system: NL20 cells
# Method: (§2) After 48 hour incubation with the antibiotic, cells were incubated in fresh growth media containing 5% Alamar Blue dye and fluorescence was recorded at 0 h and 4 h to assess antibiotic cytotoxicity.
# [7] = test system: HBE135 cells; assay: Cytotoxicity on HBE135 cells, Alamar Blue assay; format: cell-based, human; conditions: for changes in cell viability in cytotoxicity assays: Example 5, LPS-induced HBE135 cells, 10-300 μg/ml, data not shown
# Method: as §2
# [8] = test system: IL-1β; assay: IL-1β production in LPS-stimulated THP-1 cells (ELISA); format: cell-based, human; conditions: 24 h
# Method: The human monocyte cell line, THP-1 is an established in vitro model of human monocytic cells and is capable to secrete a greater variety of cytokines compared to NL20 and HBE135 cells. THP-1 cells were cultured in RPMI-1640 medium with 10% FBS, 0.05 mM 2-mecraptoethanol. THP-1 cells were seeded on 24-well tissue culture plates at 1×10^6 cells/ml in growth media without serum. The following day, 100 ng/ml LPS from P. aeruginosa and antibiotics were added and cells incubated for 24 hours before media collection to assess cytokine production. Quantification of IL-6, IL-8, IL-1β and TNFα production was performed as described above for NL20 cells.
# [9] = test system: IL-8 mRNA; assay: IL-8 mRNA expression in TNFα-induced NL20 cells (real-time PCR); format: cell-based, human; conditions: NL20 monolayers, 10 ng/ml TNFα, 24 h; 100 μg/ml and 300 μg/ml
# Method: IL-8 mRNA expression in NL20 monolayers was induced by treatment with 10 ng/ml TNFα. Levofloxacin was added simultaneously with TNFα. After 24 h incubation, the cell monolayer was washed with PBS, total cellular RNA was prepared and reverse transcription was performed using a human IL-8 specific primer and the “Cells-to-cDNA” kit from Ambion (Austin, Tex.). cDNA was subjected to real-time PCR analysis using PowerSYBR Green PCR master mix and a GeneAmp 5700 Instrument (Applied Biosystems; Warrington, UK). All data were normalized to the housekeeping gene β-actin. […] This increase correlates with the increased levels of IL-8 protein induced by TNFα.
# [10] = test system: IL-6; assay: IL-6 levels in BAL of LPS-injected mice after aerosol treatment; format: in vivo; conditions: LPS i.p., aerosol 60 mg/kg, BAL at 6 hours
# Method: (§3) Mice (n=4) were injected with 50 μg LPS by an intraperitoneal route. […] Mice were sacrificed 6 hours after aerosolized treatment, and bronchoalveolar (BAL) fluid was collected by lavage with 1 ml saline. IL-6 and MIP-2 (murine homolog of human IL-8) levels were determined by ELISA.
# [11] = test system: MIP-2; assay: MIP-2 levels in BAL of LPS-injected mice after aerosol treatment; format: in vivo; conditions: 50 μg LPS i.p., aerosol 60 mg/kg 30 min after LPS, BAL 6 hours after treatment
# Method: as §3
# [12] = Example 3, NL20 cells induced with TNFα, 300 μg/ml
# [13] = summary of Example 5, cultured human lung epithelial cell lines (line not given), 300 μg/ml, p<0.05
# [14] = Example 5, NL20 cells, TNFα, 300 μg/ml
# [15] = Example 5, NL20 cells, TNFα, 10 μg/ml to 100 μg/ml
# [16] = summary of Example 5, cultured human lung epithelial cell lines (line not given)
compound,measurement,setting,value
O=C(O)c1cn(C2CC2)c2cc(N3CCNCC3)c(F)cc2c1=O [ciprofloxacin],change in IL-6 levels,"[1]; Example 1, NL20 cells, 10 ng/ml TNFα, 48 h, 10 μg/ml and 30 μg/ml antibiotic",No significant change
same,IL-6 levels,"[1]; Example 1, NL20 cells, TNFα, 30 μg/ml",increase
Cc1c(F)c(N2CCNC(C)C2)cc2c1c(=O)c(C(=O)O)cn2C1CC1 (centres unmarked) [grepafloxacin],"secretion of pro-inflammatory factor such as IL-8, IL-6, ERK1/2, MK, and NFKB",[2],can inhibit
C[C@H]1COc2c(N3CCN(C)CC3)c(F)cc3c(=O)c(C(=O)O)cn1c23 [levofloxacin],reduction in IL-6 levels,[1]; [12],~10 fold
same,reduction in IL-6 levels,"[1]; Example 5, NL20 cells, 10 ng/ml TNFα, 100 μg/ml, p<0.005",2 fold
same,reduction in IL-6 levels,"[1]; Example 5, NL20 cells, 10 ng/ml TNFα, 300 μg/ml, p<0.005",4 fold
same,reduced levels of IL-6,[1]; [13],4 fold
same,reduction in IL-8 levels,[3]; [12],~5 fold
same,levels of IL-8 decreased,"[3]; Example 5, NL20 cells, TNFα, 100 μg/ml",50%
same,levels of IL-8 decreased,[3]; [14],60%
same,reduced levels of IL-8,[3]; [13],2 fold
same,decrease in IL-6 levels,[4]; 100 μg/ml,45%
same,decrease in IL-6 levels,[4]; 300 μg/ml,40%
same,levels of IL-8 decreased,"[5]; Example 5, 100 μg/ml",30%
same,levels of IL-8 decreased,"[5]; Example 5, 300 μg/ml",20%
same,cytotoxicity compared to moxifloxacin and ciprofloxacin,[6],less cytotoxic
same,changes in cell viability in cytotoxicity assays,[7],No significant changes
same,cytotoxicity compared to moxifloxacin and ciprofloxacin,"[7]; HBE135 cells, 48 hour incubation, higher concentrations",less cytotoxic
same,decrease in IL-1I3 levels,[8]; 100 μg/ml,40%
same,decrease in IL-1I3 levels,[8]; 300 μg/ml,70%
same,level of IL-8 mRNA expression,[9],no significant effect
same,IL-6 levels lower than in the saline control,[10]; p<0.05,more than 2 fold
NC[C@H]1O[C@H](O[C@H]2[C@H](O)[C@@H](O[C@H]3O[C@H](CO)[C@@H](O)[C@H](N)[C@H]3O)[C@H](N)C[C@@H]2N)[C@H](N)C[C@@H]1O [tobramycin],production of IL-6,[1]; [15],did not significantly affect
same,IL-6 production,[1]; [14],increase
same,increased IL-6 levels,[1]; [16],50%
same,production of IL-8,[3]; [15],did not significantly affect
same,effect on IL-8,[3]; [16],no effect
same,levels of IL-6,"[4]; Example 5, LPS, 10 μg/ml, 30 μg/ml, or 100 μg/ml",did not affect
same,increased levels of IL-6,"[4]; Example 5, LPS, 300 μg/ml",30%
same,changes in cell viability in cytotoxicity assays,[7],No significant changes
same,mean MIP-2 levels,[11],502 pg/mL
same,IL-6 levels compared to the saline control,[10],increase
